In DBAASP:
Converted amounts (≈) assume the structure as drawn.

Legend:
Assay in all cases: ≥ marks a high value that may be exact or a test limit, other limits are often not marked, values filed in µg/mL are converted to µM
[1] = tested on: Acinetobacter baumannii ATCC BAA-1605
[2] = tested on: Escherichia coli ATCC 25922
[3] = tested on: Escherichia coli ATCC 43827
[4] = tested on: Listeria monocytogenes EGD
[5] = tested on: Pseudomonas aeruginosa ATCC 27853
[6] = tested on: Pseudomonas aeruginosa ATCC 9027
[7] = tested on: Staphylococcus aureus ATCC 25923
[8] = tested on: Staphylococcus aureus ATCC 33591
[9] = tested on: Candida albicans ATCC 90029
[10] = tested on: Candida albicans
[11] = tested on: Escherichia coli
[12] = tested on: Pseudomonas aeruginosa
[13] = tested on: Staphylococcus aureus ATCC 29213
[14] = tested on: Staphylococcus aureus
[15] = tested on: Lactobacillus delbrueckii subsp. bulgaricus CIDCA 331
[16] = tested on: Lactobacillus delbrueckii subsp. lactis CIDCA 133
[17] = tested on: Staphylococcus aureus ATCC 43300
[18] = tested on: Vibrio cholerae CUN 09
[19] = tested on: Listeria monocytogenes ATCC 19114
[20] = tested on: Listeria monocytogenes ATCC 19115
[21] = tested on: Listeria monocytogenes ATCC 7644
[22] = tested on: Listeria monocytogenes NCTC 18890
[23] = tested on: Listeria monocytogenes
[24] = tested on: Candida albicans NCTC 1467
[25] = tested on: Enterococcus faecalis NCTC 12697
[26] = tested on: Escherichia coli NCTC 10418
[27] = tested on: Staphylococcus aureus ATCC 12493
[28] = tested on: Staphylococcus aureus NCTC 10788
[29] = tested on: Candida albicans ATCC 2048
[30] = tested on: Candida glabrata ATCC 90525
[31] = tested on: Candida krusei ATCC 6258
[32] = tested on: Candida parapsilosis ATCC 20224
[33] = tested on: Candida tropicalis ATCC 20240

CC[C@H](C)[C@H](NC(=O)[C@H](Cc1ccccc1)NC(=O)[C@H](CCCCN)NC(=O)[C@H](CC(N)=O)NC(=O)[C@H](CC(C)C)NC(=O)[C@H](CCC(N)=O)NC(=O)CN)C(=O)N[C@@H](CCCCN)C(=O)N[C@@H](CCCCN)C(=O)N[C@@H](C)C(=O)N[C@@H](CCC(N)=O)C(=O)N[C@@H](CCCN=C(N)N)C(=O)N[C@@H](CCCCN)C(=O)N[C@@H](Cc1ccccc1)C(=O)N[C@@H](Cc1cnc[nH]1)C(=O)N[C@@H](CCC(=O)O)C(=O)N[C@@H](CCCCN)C(=O)N[C@@H](Cc1ccccc1)C(=O)N[C@@H](C)C(=O)N[C@@H](CCCCN)C(N)=O [GQLNKFIKKAQRKFHEKFAK]
MIC [1]: ≥ 105 µM
MIC [2]: 128 µM (≈ 313 µg/mL)
MIC [3]: ≥ 209 µM
MIC [4]: ≥ 128 µM
MIC [5]: 128 µM (≈ 313 µg/mL)
MIC [6]: 209 µM (≈ 512 µg/mL)
MIC [7]: 128 µM (≈ 313 µg/mL)
MIC [8]: ≥ 209 µM

CC(C)C[C@H](NC(=O)[C@H](CO)NC(=O)[C@H](Cc1cnc[nH]1)NC(=O)[C@H](CO)NC(=O)[C@H](CC(C)C)NC(=O)[C@H](CC(C)C)NC(=O)[C@@H](N)CCCCN)C(=O)N[C@@H](CC(C)C)C(=O)N[C@H](C(=O)N[C@H](C(=O)N[C@@H](CC(C)C)C(=O)N[C@@H](C)C(=O)O)[C@@H](C)O)C(C)C [KLLSHSLLVTLA]
MIC [9]: ≥ 154 µM
MIC [10]: > 154 µM
MIC [2]: 4.83 µM (≈ 6.25 µg/mL)
MIC [11]: 9.66 µM (≈ 12.5 µg/mL)
MIC [12]: 4.83 µM (≈ 6.25 µg/mL)
MIC [13]: 4.83 µM (≈ 6.25 µg/mL)
MIC [14]: 4.83 µM (≈ 6.25 µg/mL)

CC[C@H](C)[C@H](NC(=O)[C@H](CC(=O)O)NC(=O)[C@H](Cc1ccccc1)NC(=O)[C@H](CC(C)C)NC(=O)CN)C(=O)N[C@@H](CCCCN)C(=O)N[C@@H](CCCCN)C(=O)N[C@H](C(=O)N[C@@H](C)C(=O)N[C@@H](CO)C(=O)N[C@H](C(=O)N[C@H](C(=O)NCC(=O)NCC(=O)N[C@@H](CC(C)C)C(N)=O)[C@@H](C)CC)C(C)C)C(C)C [GLFDIKKVASVIGGL]
MIC [15]: 25 µM (≈ 37.9 µg/mL)
MIC [16]: ≥ 50 µM

CC(C)C[C@H](NC(=O)[C@H](CCCCN)NC(=O)CNC(=O)[C@H](CCCCN)NC(=O)[C@H](Cc1ccccc1)NC(=O)[C@H](CCCCN)NC(=O)[C@H](Cc1c[nH]c2ccccc12)NC(=O)[C@H](CCCN=C(N)N)NC(=O)[C@H](Cc1ccccc1)NC(=O)[C@H](CCCN=C(N)N)NC(=O)[C@H](CCCN=C(N)N)NC(=O)[C@H](Cc1ccc(O)cc1)NC(=O)[C@H](CCCCN)NC(=O)[C@H](CCCCN)NC(=O)[C@H](CS)NC(=O)CN)C(=O)N[C@@H](Cc1c[nH]c2ccccc12)C(=O)N[C@@H](CC(C)C)C(=O)N[C@@H](Cc1c[nH]c2ccccc12)C(=O)NCC(N)=O [GCKKYRRFRWKFKGKLWLWG]
MIC [17]: 6.05 µM (≈ 16 µg/mL)
MIC [18]: 12.1 µM (≈ 32 µg/mL)

CSCC[C@H](N)C(=O)N[C@@H](CCCN=C(N)N)C(=O)NCC(=O)N[C@@H](CO)C(=O)N[C@@H](Cc1cnc[nH]1)C(=O)N[C@@H](Cc1cnc[nH]1)C(=O)N[C@@H](Cc1cnc[nH]1)C(=O)N[C@@H](Cc1cnc[nH]1)C(=O)N[C@@H](Cc1cnc[nH]1)C(=O)N[C@@H](Cc1cnc[nH]1)C(=O)NCC(=O)N[C@@H](CO)C(=O)N[C@@H](CO)C(=O)NCC(=O)N[C@@H](CCC(=O)O)C(=O)N[C@@H](CC(N)=O)C(=O)N[C@@H](CC(C)C)C(=O)N[C@@H](Cc1ccc(O)cc1)C(=O)N[C@@H](Cc1ccccc1)C(=O)N[C@@H](CCC(N)=O)C(=O)N[C@@H](CO)C(=O)N[C@@H](CC(C)C)C(=O)O [MRGSHHHHHHGSSGENLYFQSL]
MIC [19]: ≥ 1960 µM
MIC [20]: ≥ 1960 µM
MIC [21]: ≥ 1960 µM
MIC [22]: ≥ 1960 µM
MIC [23]: ≥ 1960 µM

CC[C@H](C)[C@H](NC(=O)CN)C(=O)N[C@@H](CCSC)C(=O)N[C@@H](CC(=O)O)C(=O)N[C@H](C(=O)N[C@H](C(=O)N[C@@H](CCCCN)C(=O)N[C@@H](CC(N)=O)C(=O)N[C@@H](C)C(=O)N[C@@H](C)C(=O)N[C@@H](CCCCN)C(=O)N[C@@H](CC(N)=O)C(=O)N[C@@H](CC(C)C)C(=O)N[C@@H](C)C(=O)NCC(=O)N[C@@H](CCC(N)=O)C(=O)N[C@@H](CC(C)C)C(=O)N[C@@H](CC(C)C)C(=O)N[C@@H](CC(=O)O)C(=O)N[C@@H](CCCCN)C(=O)N[C@@H](CC(C)C)C(=O)N[C@@H](CCCCN)C(=O)N[C@H]1CSSC[C@@H](C(=O)O)NC(=O)[C@H](C)NC(=O)[C@H]([C@@H](C)O)NC(=O)[C@H]([C@@H](C)CC)NC(=O)[C@H](CCCCN)NC1=O)C(C)C)[C@@H](C)O [GIMDTVKNAAKNLAGQLLDKLKCKITAC]
MIC [24]: ≥ 256 µM
MIC [25]: ≥ 128 µM
MIC [26]: ≥ 32 µM
MIC [5]: > 512 µM
MIC [27]: ≥ 256 µM
MIC [28]: ≥ 32 µM

CC[C@H](C)[C@H](NC(=O)[C@H](CO)NC(=O)[C@H](CC(C)C)NC(=O)[C@@H](NC(=O)[C@H](CCCN=C(N)N)NC(=O)[C@@H](N)CCC(=O)O)[C@@H](C)CC)C(=O)N[C@@H](CC(C)C)C(=O)N[C@@H](CCCN=C(N)N)C(=O)N[C@@H](Cc1cnc[nH]1)C(=O)N[C@@H](CCC(N)=O)C(=O)N[C@@H](CC(N)=O)C(=O)N[C@@H](CC(C)C)C(=O)N[C@@H](CC(C)C)C(=O)N[C@@H](CCCCN)C(=O)N[C@@H](CCC(=O)O)C(=O)O [ERILSILRHQNLLKE]
MIC [29]: ≥ 130 µM
MIC [30]: ≥ 110 µM
MIC [31]: ≥ 130 µM
MIC [32]: ≥ 130 µM
MIC [33]: ≥ 73 µM
